Laboratory results as given in patent US20110039762A1, “TARGETED ANTIMICROBIAL MOIETIES” (C3 JIAN, INC., priority 2009, published 2011).
Entries after “also recorded” stand apart in the source; their conditions may differ.

Experiments:
[1] = test system: microorganisms (e.g., bacteria, yeasts, fungi); test: Targeting peptide binding to target microorganisms (Table 3); details: preferably 1x PBS; for Target(s) (microorganisms bound by the targeting peptide): peptide binding in aqueous buffers varied by peptide solubility
microorganisms = test: Peptides having multiple activities (targeting/binding, antimicrobial, growth or phenotype altering)
Source text: In certain embodiments, peptides described herein can have multiple activities. Thus for example, a peptide can have both binding/targeting activity and antimicrobial activity. Such peptides can be used, e.g., in a chimeric construct, for any or all of these properties. Thus, for example, a peptide designated “B” in Table 8 can be used as a targeting peptide. If it is also designated G or M it can also be used for antimicrobial activity.

C. jeikeium = test: Kill or inhibit growth/proliferation; morphology, biofilm and growth disruption (Tables 5, 6); assay type: cell-based, Corynebacterium jeikeium; parameters: key: A: Peptide aggregates; B: Less hyphal formation; Clumps; Diffuse clumps and small polyps; F: Diffuse growth; H: Thin; I: Growth inhibition; Microcolony formation; Rippled; Small polyps; Thick; W: Halo formation on top, microlonies on bottom; note: test concentration or dose not given here
MRSA = test: as above; assay type: cell-based, Methicillin-resistant Staphylococcus aureus; parameters: key: A: Peptide aggregates; B: Less hyphal formation; Clumps; Diffuse clumps and small polyps; F: Diffuse growth; H: Thin; I: Growth inhibition; Microcolony formation; Rippled; Small polyps; Thick; W: Halo formation on top, microlonies on bottom
S. epidermidis = test: as above; assay type: cell-based, Staphylococcus epidermidis; parameters: key: A: Peptide aggregates; B: Less hyphal formation; Clumps; Diffuse clumps and small polyps; F: Diffuse growth; H: Thin; I: Growth inhibition; Microcolony formation; Rippled; Small polyps; Thick; W: Halo formation on top, microlonies on bottom
E. faecalis = test: as above; assay type: cell-based, Enterococcus faecalis; parameters: key: A: Peptide aggregates; B: Less hyphal formation; Clumps; Diffuse clumps and small polyps; F: Diffuse growth; H: Thin; I: Growth inhibition; Microcolony formation; Rippled; Small polyps; Thick; W: Halo formation on top, microlonies on bottom
S. pneumoniae = test: as above; assay type: cell-based, Streptococcus pneumoniae; parameters: key: A: Peptide aggregates; B: Less hyphal formation; Clumps; Diffuse clumps and small polyps; F: Diffuse growth; H: Thin; I: Growth inhibition; Microcolony formation; Rippled; Small polyps; Thick; W: Halo formation on top, microlonies on bottom
[2] = microorganism the targeting peptide binds, binding in aqueous buffers varied by peptide solubility
[3] = microorganism(s) the targeting peptide binds, binding in aqueous buffers depending on peptide solubility
Throughout, for Organism, effect (morphology, biofilm and growth disruption): test concentration or dose not given here.
Throughout, for Organism, effect: test concentration or dose not given here.

ALDCSEQSVILWYETILDKIVGVIK [PF-028]
Target(s) [1, 2]: S. epidermidis and M. luteus and MRSA | Activities (microorganisms): G B | Organism, effect (C. jeikeium): C. jeikeium (M) | Organism, effect (MRSA): MRSA (R) | Organism, effect (S. epidermidis): S. epidermidis (M)

PF-046: peptide having multiple activities (chain 1 LDFYLTKHLTLML; chain 2 LDFYLTKHLTLML; Peptide with targeting and/or antimicrobial activity)
Target(s) [1, 2]: E. coli; also recorded: E. faecalis; also recorded: C. jeikeium | Activities (microorganisms): G B | Organism, effect (C. jeikeium): C. jeikeium (R) | Organism, effect (MRSA): MRSA (R) | Organism, effect (S. epidermidis): S. epidermidis (C)

PF-048: peptide having multiple activities (chain 1 LYFAFKKYQERVNQAPNIEY; chain 2 LYFAFKKYQERVNQAPNIEY; Peptide with targeting and/or antimicrobial activity)
Target(s) [1, 2]: S. epidermidis and M. luteus and E. coli and MRSA and C. jeikeium and C. jejuni | Activities (microorganisms): G B | Organism, effect (C. jeikeium): C. jeikeium (S) | Organism, effect (MRSA): MRSA (W) | Organism, effect (S. epidermidis): S. epidermidis (D)

PF-065: peptide having multiple activities (LEKNTRDNYFIHAIDRIYINTSKGLFPESELVAWG; Peptide with targeting and/or antimicrobial activity)
Target(s) [1, 2]: M. luteus and E. coli and P. aeruginosa and C. albicans and MRSA and S. pneumoniae and C. jeikeium and C. jejuni | Activities (microorganisms): G B | Organism, effect (C. jeikeium): C. jeikeium (A) | Organism, effect (MRSA): MRSA (R) | Organism, effect (S. epidermidis): S. epidermidis (D)

PF-099: peptide having multiple activities (EIIAYLEGRFANA; Peptide with targeting and/or antimicrobial activity)
Target(s) [1, 3]: S. epidermidis; also recorded: M. luteus; also recorded: E. coli; also recorded: C. jeikeium | Activities (microorganisms): G B | Organism, effect (C. jeikeium): C. jeikeium (C) | Organism, effect (S. epidermidis): S. epidermidis (D)

PF-129: peptide having multiple activities (MKLLARDPWVCAWNDIW; Peptide with targeting and/or antimicrobial activity)
Target(s) [1, 3]: S. epidermidis and MRSA and E. faecalis and C. jeikeium and C. jejuni | Activities (microorganisms): G B | Organism, effect (C. jeikeium): C. jeikeium (R) | Organism, effect (S. epidermidis): S. epidermidis (M)

PF-153: peptide having multiple activities (GILARADCSQIA; Peptide with targeting and/or antimicrobial activity)
Target(s) [1, 3]: M. luteus and P. mirabilis and E. coli and MRSA | Activities (microorganisms): G B | Organism, effect (C. jeikeium): C. jeikeium (C) | Organism, effect (S. epidermidis): S. epidermidis (M)

PF-173: peptide having multiple activities (AGRTAIVQGGG; Peptide with targeting and/or antimicrobial activity)
Target(s) [1, 3]: S. epidermidis; also recorded: M. luteus; also recorded: P. mirabilis; also recorded: E. coli; also recorded: P. aeruginosa; also recorded: C. albicans; also recorded: C. jeikeium; also recorded: C. jejuni | Activities (microorganisms): G B | Organism, effect (C. jeikeium): C. jeikeium (D) | Organism, effect (S. epidermidis): S. epidermidis (A)

PF-186: peptide having multiple activities (DADKNLSLERDRFAWRVAAP; Peptide with targeting and/or antimicrobial activity)
Target(s) [1, 3]: S. epidermidis and M. luteus and E. coli and P. aeruginosa and MRSA and C. jeikeium | Activities (microorganisms): G B | Organism, effect (C. jeikeium): C. jeikeium (A) | Organism, effect (S. epidermidis): S. epidermidis (C)

PF-190: peptide having multiple activities (HFILRKPLLFMIHSLKTGPLDRF; Peptide with targeting and/or antimicrobial activity)
Activities (microorganisms): G B | Organism, effect (C. jeikeium): C. jeikeium (R) | Organism, effect (S. epidermidis): S. epidermidis (C)

PF-191: peptide having multiple activities (QFCNFAWLFLASNNAQVSALA; Peptide with targeting and/or antimicrobial activity)
Target(s) [1, 3]: E. coli; also recorded: P. aeruginosa; also recorded: C. jejuni | Activities (microorganisms): G B | Organism, effect (C. jeikeium): C. jeikeium (R) | Organism, effect (MRSA): MRSA (H) | Organism, effect (S. epidermidis): S. epidermidis (A)

PF-196: peptide having multiple activities (TTARYIRRQCHTSITPLSQG; Peptide with targeting and/or antimicrobial activity)
Activities (microorganisms): G B | Organism, effect (C. jeikeium): C. jeikeium (R) | Organism, effect (S. epidermidis): S. epidermidis (C)

PF-203: peptide having multiple activities (SWKCHHLAI; Peptide with targeting and/or antimicrobial activity)
Activities (microorganisms): G B | Organism, effect (C. jeikeium): C. jeikeium (R) | Organism, effect (S. epidermidis): S. epidermidis (A)

PF-208: peptide having multiple activities (DAYHCHLVRSPDAHDLSMRIGFV; Peptide with targeting and/or antimicrobial activity)
Target(s) [1, 3]: S. epidermidis and C. albicans and MRSA and S. pneumoniae and E. faecalis and C. jeikeium and C. jejuni | Activities (microorganisms): G B | Organism, effect (C. jeikeium): C. jeikeium (A) | Organism, effect (S. epidermidis): S. epidermidis (D)

PF-622: peptide having multiple activities (TREDVFSVRLINNIVNKQA; Peptide with targeting and/or antimicrobial activity)
Target(s) (microorganisms bound by the targeting peptide) [1]: S. epidermidis; also recorded: P. aeruginosa; also recorded: C. albicans; also recorded: S. pneumoniae; also recorded: E. faecalis; also recorded: C. jeikeium | Organism, effect (E. faecalis): E. faecalis (D) | Organism, effect (S. pneumoniae): S. pneumoniae (M) | Activities (microorganisms): G B | Organism, effect (C. jeikeium): C. jeikeium (D) | Organism, effect (MRSA): MRSA (D) | Organism, effect (S. epidermidis): S. epidermidis (D)

PF-623: peptide having multiple activities (VLFAVYLGALDWLFSWLTQKM; Peptide with targeting and/or antimicrobial activity)
Target(s) (microorganisms bound by the targeting peptide) [1]: S. epidermidis and P. aeruginosa and MRSA and S. pneumoniae and E. faecalis and C. jeikeium | Organism, effect (E. faecalis): E. faecalis (D) | Organism, effect (S. pneumoniae): S. pneumoniae (D) | Activities (microorganisms): G B | Organism, effect (C. jeikeium): C. jeikeium (R) | Organism, effect (MRSA): MRSA (D) | Organism, effect (S. epidermidis): S. epidermidis (M)

PF-629: peptide having multiple activities (chain 1 GLAAIATVFALY; chain 2 GLAAIATVFALY; Peptide with targeting and/or antimicrobial activity)
Target(s) (microorganisms bound by the targeting peptide) [1]: S. epidermidis and P. aeruginosa and C. albicans and MRSA and S. pneumoniae and E. faecalis and C. jeikeium | Organism, effect (E. faecalis): E. faecalis (R) | Organism, effect (S. pneumoniae): S. pneumoniae (M) | Activities (microorganisms): G B | Organism, effect (C. jeikeium): C. jeikeium (R) | Organism, effect (MRSA): MRSA (D) | Organism, effect (S. epidermidis): S. epidermidis (C)

PF-657 (chain 1 YVANYTITQFGRDFDDRLAVAIHFA; chain 2 YVANYTITQFGRDFDDRLAVAIHFA; Peptide with targeting and/or antimicrobial activity)
Target(s) (microorganisms bound by the targeting peptide) [1]: Mycobacteria spp | Organism, effect (morphology, biofilm and growth disruption) (E. faecalis): E. faecalis (D) | Organism, effect (morphology, biofilm and growth disruption) (S. pneumoniae): S. pneumoniae (H) | Organism, effect (morphology, biofilm and growth disruption) (C. jeikeium): C. jeikeium (D) | Organism, effect (morphology, biofilm and growth disruption) (MRSA): MRSA (D) | Organism, effect (morphology, biofilm and growth disruption) (S. epidermidis): S. epidermidis (C)

PF-685 (chain 1 PTLWLACL; chain 2 PTLWLACL; Peptide with targeting and/or antimicrobial activity)
Target(s) (microorganisms bound by the targeting peptide) [1]: Mycobacteria spp | Organism, effect (morphology, biofilm and growth disruption) (E. faecalis): E. faecalis (R) | Organism, effect (morphology, biofilm and growth disruption) (S. pneumoniae): S. pneumoniae (M) | Organism, effect (morphology, biofilm and growth disruption) (C. jeikeium): C. jeikeium (R) | Organism, effect (morphology, biofilm and growth disruption) (MRSA): MRSA (M) | Organism, effect (morphology, biofilm and growth disruption) (S. epidermidis): S. epidermidis (M)
